Measured values reported in patent US20240366589A1, “NHE3-BINDING COMPOUNDS AND METHODS FOR INHIBITING PHOSPHATE TRANSPORT” (Ardelyx, Inc., priority 2013, published 2024).

Experiments:
Rat NHE3 = molecular target: T1, Rat NHE3 (Rattus norvegicus, UniProt P26433); assay: Cell-based NHE3 activity under prompt conditions (OK cells, BCECF pH recovery), rat NHE3; conditions: prompt conditions
T1 construct: expressed in transfected cells; host or cells: Opossum kidney (OK) cells (ATCC), electroporation
Outline: (§1)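 Read-out: initial rate of BCECF-reported intracellular pH recovery via Na+/H+ antiport, fitted to pIC50. Opossum kidney cells transfected with rat or human NHE3; NH4Cl prepulse with 5 μM BCECF-AM, 30 min RT; Na+-free choline buffer 10 min.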

Human NHE3 = molecular target: T2, Human NHE3 (Homo sapiens, UniProt P48764); assay: Cell-based NHE3 activity under prompt conditions (OK cells, BCECF pH recovery), human NHE3; conditions: prompt conditions
T2 construct: expressed in transfected cells; host or cells: Opossum kidney (OK) cells (ATCC), electroporation
T2 sequence (P48764 26-834): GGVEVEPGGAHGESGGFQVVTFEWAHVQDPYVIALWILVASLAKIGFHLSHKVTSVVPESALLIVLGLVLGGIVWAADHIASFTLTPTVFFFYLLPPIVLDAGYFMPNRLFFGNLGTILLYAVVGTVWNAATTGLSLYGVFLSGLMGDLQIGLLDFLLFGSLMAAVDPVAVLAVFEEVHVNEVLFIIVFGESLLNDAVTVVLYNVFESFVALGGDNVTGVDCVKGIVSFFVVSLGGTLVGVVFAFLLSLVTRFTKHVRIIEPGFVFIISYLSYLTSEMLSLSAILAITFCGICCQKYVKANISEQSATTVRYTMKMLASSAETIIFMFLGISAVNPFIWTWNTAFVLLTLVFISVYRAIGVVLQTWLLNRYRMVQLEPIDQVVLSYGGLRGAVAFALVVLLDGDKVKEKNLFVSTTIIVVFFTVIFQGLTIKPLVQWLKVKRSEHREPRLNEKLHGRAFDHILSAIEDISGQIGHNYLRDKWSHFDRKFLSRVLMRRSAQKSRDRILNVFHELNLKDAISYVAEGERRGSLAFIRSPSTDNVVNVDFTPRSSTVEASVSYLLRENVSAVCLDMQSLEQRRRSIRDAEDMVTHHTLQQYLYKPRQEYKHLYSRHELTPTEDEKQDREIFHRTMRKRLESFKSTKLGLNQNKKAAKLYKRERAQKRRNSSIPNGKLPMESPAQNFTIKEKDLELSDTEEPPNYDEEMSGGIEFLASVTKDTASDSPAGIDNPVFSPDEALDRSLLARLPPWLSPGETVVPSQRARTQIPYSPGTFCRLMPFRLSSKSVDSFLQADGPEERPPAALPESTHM
Outline: as §1

[1] = tested on: absorption of sodium from the intestinal lumen; assay: Inhibition of intestinal sodium absorption: urinary sodium (uNa) 16 h after single oral dose in rats; format: in vivo, rat; conditions: oral gavage, 16 h post-dose
Outline: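 Urinary sodium mass over the 16 h after one oral gavage dose, measured by cation-exchange ion chromatography, reported as percent of water-vehicle group; ANOVA plus Dunnett's post hoc test. Groups of six 8-week-old Sprague-Dawley rats, housed individually in metabolic cages post-dose, fed and watered freely.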

[2] = tested on: absorption of sodium from the intestinal lumen; assay: Fecal form score (FFS) 16 h after oral dose in rats; format: in vivo, rat; conditions: oral gavage, 16 h post-dose, scale 1-5
Outline: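 Fecal form was scored at 16 h post-dose on a 1–5 wetness scale (normal pellet to liquid stream), with two independent observations averaged across six rats per group. Animals were 8-week-old Sprague-Dawley rats given test compound or water orally in the late afternoon and kept in metabolic cages.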

[3] = tested on: phosphorus and calcium levels in the urine of rats; assay: Urinary excretion of phosphate and calcium in rats (16 h overnight urine); format: in vivo, rat; conditions: rats, oral gavage, 16 h post-dose

T1 sequence (P26433 29-831): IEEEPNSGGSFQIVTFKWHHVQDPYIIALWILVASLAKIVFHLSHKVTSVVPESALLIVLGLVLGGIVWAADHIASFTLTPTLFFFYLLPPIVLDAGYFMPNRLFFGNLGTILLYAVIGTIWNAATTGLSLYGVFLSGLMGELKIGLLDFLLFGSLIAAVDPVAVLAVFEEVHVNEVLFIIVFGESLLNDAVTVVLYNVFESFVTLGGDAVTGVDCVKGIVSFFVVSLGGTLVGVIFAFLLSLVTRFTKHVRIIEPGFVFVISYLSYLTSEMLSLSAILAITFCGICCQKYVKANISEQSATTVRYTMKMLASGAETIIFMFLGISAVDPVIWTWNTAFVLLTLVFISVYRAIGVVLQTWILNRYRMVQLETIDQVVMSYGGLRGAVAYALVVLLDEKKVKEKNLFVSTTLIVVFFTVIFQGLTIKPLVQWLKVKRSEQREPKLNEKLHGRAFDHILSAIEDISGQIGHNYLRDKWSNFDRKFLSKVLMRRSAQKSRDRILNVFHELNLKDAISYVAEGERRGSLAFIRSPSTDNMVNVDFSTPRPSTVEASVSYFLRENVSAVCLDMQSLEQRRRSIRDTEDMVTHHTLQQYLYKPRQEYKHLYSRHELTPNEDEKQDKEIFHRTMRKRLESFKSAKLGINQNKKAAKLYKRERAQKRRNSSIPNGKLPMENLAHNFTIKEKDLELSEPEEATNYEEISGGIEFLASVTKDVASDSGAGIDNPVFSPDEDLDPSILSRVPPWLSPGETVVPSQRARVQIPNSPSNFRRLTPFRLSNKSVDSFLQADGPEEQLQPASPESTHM

Structure (SMILES) | Prompt Rat NHE3 pIC50 (Rat NHE3) | Prompt Human NHE3 pIC50 (Human NHE3) | Urine Na % of control ([1]; dose 10 mg/kg) [%] | Fecal Form Score average ([2]; dose 10 mg/kg) | Urine P % of control ([3]; dose 10 mg/kg) [%] | Urine Na % of control ([1]; dose 3 mg/kg) [%] | Fecal Form Score average ([2]; dose 3 mg/kg) | Urine P % of control ([3]; dose 3 mg/kg) [%] | Urine Na % of control ([1]; dose 30 mg/kg) [%] | Fecal Form Score average ([2]; dose 30 mg/kg) | Urine P % of control ([3]; dose 30 mg/kg) [%] | Urine Na % of control ([1]; dose 1 mg/kg) [%] | Fecal Form Score average ([2]; dose 1 mg/kg) | Urine P % of control ([3]; dose 1 mg/kg) [%]
O=C(NCCOCCOCCNS(=O)(=O)c1ccc(O[C@H]2c3ccccc3C[C@@H]2N2CCCCC2)cc1)c1cccc(C(=O)NCCOCCOCCNS(=O)(=O)c2ccc(O[C@H]3c4ccccc4C[C@@H]3N3CCCCC3)cc2)c1 [compound 101] | <5.00 | 8.10 | 64 | 1 | 81 | – | – | – | – | – | – | – | – | –
N=C(N)Nc1nc(-c2cccc(N3CCN(CCOCCOCCOCCNC(=O)CCOCCOCCOCCOCCOCCC(=O)NCCOCCOCCOCCN4CCN(c5cccc(-c6nc(NC(=N)N)nc7ccc(Cl)cc67)c5)CC4)CC3)c2)c2cc(Cl)ccc2n1 [compound 23] | 6.87 | 8.55 | 73 | 1 | 95 | – | – | – | – | – | – | – | – | –
CN1Cc2c(Cl)cc(Cl)cc2[C@H](c2cccc(S(=O)(=O)NCCOCCOCCNC(=O)CCC(CCC(=O)NCCOCCOCCNS(=O)(=O)c3cccc([C@@H]4CN(C)Cc5c(Cl)cc(Cl)cc54)c3)(CCC(=O)NCCOCCOCCNS(=O)(=O)c3cccc([C@@H]4CN(C)Cc5c(Cl)cc(Cl)cc54)c3)NC(=O)N[C@@H](CO)C(=O)O)c2)C1 [compound 163] | 7.90 | 7.60 | – | – | – | 27 | 2 | 48 | – | – | – | – | – | –
NCCOCCOCCNS(=O)(=O)c1ccc(O[C@H]2c3cc(Cl)cc(Cl)c3C[C@@H]2N2CCCCC2)cc1 [compound 62] | <5.00 | 7.25 | 121 | 1 | 77 | – | – | – | – | – | – | – | – | –
NC(N)=Nc1nc(-c2ccc(N3CCN(CCOCCOCCNC(=O)[C@H](O)[C@@H](O)C(=O)NCCOCCOCCN4CCN(c5ccc(-c6nc(N=C(N)N)nc7ccc(Cl)cc67)cc5)CC4)CC3)cc2)c2cc(Cl)ccc2n1 [compound 17] | 7.10 | 6.60 | – | – | – | – | – | – | 86 | 1 | 120 | – | – | –
CN(CC(=O)NCCOCCOCCNC(=O)NCCOCCOCCOCCOc1ccc(-c2nc(NC(=N)N)nc3ccc(Cl)cc23)cc1)CC(=O)NCCOCCOCCNC(=O)NCCOCCOCCOCCOc1ccc(-c2nc(NC(=N)N)nc3ccc(Cl)cc23)cc1 [compound 34] | 7.90 | 8.20 | 76 | 1 | 72 | – | – | – | – | – | – | – | – | –
CN(C)[C@H]1Cc2c(Cl)cc(Cl)cc2[C@@H]1Oc1ccc(S(=O)(=O)NCCOCCOCCNC(=O)CCC(=O)NCCOCCOCCNS(=O)(=O)c2ccc(O[C@H]3c4cc(Cl)cc(Cl)c4C[C@@H]3N(C)C)cc2)cc1 [compound 148] | 8.40 | 7.80 | – | – | – | 49 | 1 | 146 | – | – | – | – | – | –
CN1Cc2c(Cl)cc(Cl)cc2C(c2cccc(S(=O)(=O)NCCOCCOCCOCCNC(=O)CCC(CCC(=O)NCCOCCOCCOCCNS(=O)(=O)c3cccc([C@@H]4CN(C)Cc5c(Cl)cc(Cl)cc54)c3)(CCC(=O)NCCOCCOCCOCCNS(=O)(=O)c3cccc([C@@H]4CN(C)Cc5c(Cl)cc(Cl)cc54)c3)NCc3ccc(-c4ccc(Cl)cc4)cc3)c2)C1 (stereo in doubt) [compound 114] | <5.00 | <5.00 | 45 | 3 | 100 | – | – | – | – | – | – | – | – | –
O=C(NCCCCNC(=O)NCCOCCOCCNS(=O)(=O)c1ccc(O[C@H]2c3cc(Cl)cc(Cl)c3C[C@@H]2N2CCCCC2)cc1)NCCOCCOCCNS(=O)(=O)c1ccc(O[C@H]2c3cc(Cl)cc(Cl)c3C[C@@H]2N2CCCCC2)cc1 [compound 68] | <5.00 | <5.00 | 70 | 1 | 97 | – | – | – | – | – | – | – | – | –
CN1Cc2c(Cl)cc(Cl)cc2[C@H](c2cccc(S(=O)(=O)NCCOCCOCCNC(=O)CCC(CCC(=O)NCCOCCOCCNS(=O)(=O)c3cccc([C@@H]4CN(C)Cc5c(Cl)cc(Cl)cc54)c3)(CCC(=O)NCCOCCOCCNS(=O)(=O)c3cccc([C@@H]4CN(C)Cc5c(Cl)cc(Cl)cc54)c3)NC(=O)NCC(=O)O)c2)C1 [compound 164] | 7.53 | 8.13 | – | – | – | 18 | 3 | 63 | – | – | – | – | – | –
CN1Cc2c(Cl)cc(Cl)cc2[C@H](c2cccc(S(=O)(=O)NCCOCCOCCNC(=O)NCCCC(CCCNC(=O)NCCOCCOCCNS(=O)(=O)c3cccc([C@@H]4CN(C)Cc5c(Cl)cc(Cl)cc54)c3)(CCCNC(=O)NCCOCCOCCNS(=O)(=O)c3cccc([C@@H]4CN(C)Cc5c(Cl)cc(Cl)cc54)c3)NC(=O)COCC(=O)O)c2)C1 [compound 161] | 9.20 | 7.60 | – | – | – | 82 | 2 | 60 | – | – | – | – | – | –
O=C(NCCCCNC(=O)NCCOCCOCCNC(=O)Nc1cccc(O[C@H]2c3ccccc3C[C@@H]2N2CCCCC2)c1)NCCOCCOCCNC(=O)Nc1cccc(O[C@H]2c3ccccc3C[C@@H]2N2CCCCC2)c1 [compound 126] | <5.00 | 6.55 | 93 | 1 | 94 | – | – | – | – | – | – | – | – | –
C/C(=C\c1cc(F)c(Oc2ccc(S(=O)(=O)NCCOCCOCCOCCNC(=O)CN(CCN(CC(=O)O)CC(=O)NCCOCCOCCOCCNS(=O)(=O)c3ccc(Oc4c(F)cc(/C=C(\C)C(=O)N=C(N)N)cc4F)cc3)CC(=O)O)cc2)c(F)c1)C(=O)N=C(N)N [compound 27] | 7.50 | 8.40 | 51 | 1 | 91 | – | – | – | – | – | – | – | – | –
CN1Cc2c(Cl)cc(Cl)cc2[C@H](c2cccc(S(=O)(=O)NCCOCCOCCNC(=O)NCCN(CCNC(=O)NCCOCCOCCNS(=O)(=O)c3cccc([C@@H]4CN(C)Cc5c(Cl)cc(Cl)cc54)c3)CCNC(=O)NCCOCCOCCNS(=O)(=O)c3cccc([C@@H]4CN(C)Cc5c(Cl)cc(Cl)cc54)c3)c2)C1 [compound 76] | 5.60 | 6.40 | 12 | 3 | 61 | 40 | 2 | 89 | – | – | – | 58 | 1 | 96
CN1Cc2c(Cl)cc(Cl)cc2[C@H](c2cccc(S(=O)(=O)NCCOCCOCCNC(=O)CCC(CCC(=O)NCCOCCOCCNS(=O)(=O)c3cccc([C@@H]4CN(C)Cc5c(Cl)cc(Cl)cc54)c3)(CCC(=O)NCCOCCOCCNS(=O)(=O)c3cccc([C@@H]4CN(C)Cc5c(Cl)cc(Cl)cc54)c3)NC(=O)N(C)C[C@H](O)[C@@H](O)[C@H](O)[C@H](O)CO)c2)C1 [compound 142] | 8.10 | 7.10 | – | – | – | 45 | 2 | 38 | – | – | – | – | – | –
N=C(N)Nc1nc(-c2cccc(OCCOCCOCCOCCNC(=O)NCCOCCOCCNC(=O)CN(CCN(CC(=O)O)CC(=O)NCCOCCOCCNC(=O)NCCOCCOCCOCCOc3cccc(-c4nc(NC(=N)N)nc5ccc(Cl)cc45)c3)CC(=O)O)c2)c2cc(Cl)ccc2n1 [compound 44] | 7.70 | 7.90 | 88 | 1 | 102 | – | – | – | – | – | – | – | – | –
